Results as given in patent US11518758B2, “Heteroarylaminopyrimidine amide autophagy inhibitors and methods of use thereof” (Deciphera Pharmaceuticals, LLC, priority 2019, dated 2022).

Key:
[1] = biological target: T1, ULK1 kinase (Homo sapiens, UniProt O75385); assay: Biochemical assay for ULK1.2 (coupled pyruvate kinase/lactate dehydrogenase assay); conditions: 19 nM ULK1 (Eurofins), myelin basic protein, 1 mM ATP
T1 construct: purchased Eurofins 14-959
T1 sequence (O75385 with tags, fused parts or gaps): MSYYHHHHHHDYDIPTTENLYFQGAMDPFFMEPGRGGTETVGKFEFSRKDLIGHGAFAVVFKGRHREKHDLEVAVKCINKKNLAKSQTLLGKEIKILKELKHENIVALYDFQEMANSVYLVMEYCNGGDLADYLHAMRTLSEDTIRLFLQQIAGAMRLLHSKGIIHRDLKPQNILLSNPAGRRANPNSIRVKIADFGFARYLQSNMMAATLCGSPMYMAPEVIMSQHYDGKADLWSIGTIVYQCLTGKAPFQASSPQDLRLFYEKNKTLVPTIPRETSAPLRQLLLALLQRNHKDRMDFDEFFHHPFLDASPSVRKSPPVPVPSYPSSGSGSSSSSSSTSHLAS
Procedure: Example 174. Biochemical Assay for ULK1.2
Activity of ULK1 kinase was determined spectroscopically using a coupled pyruvate kinase/lactate dehydrogenase assay that continuously monitors the ATP hydrolysis-dependent oxidation of NADH (e.g., Schindler et al. Science (2000) 289: 1938-1942). Assays were conducted in 384-well plates (100 uL final volume) using 19 nM ULK1 (Eurofins CAT #14-959), 0.25 mg/mL myelin basic protein, 1.5 units pyruvate kinase, 2.1 units lactate dehydrogenase, 1 mM phosphoenol pyruvate, 0.28 mM NADH and 1 mM ATP in assay buffer (100 mM Tris, pH 7.5, 15 mM MgCl2, 0.5 mM DTT, 0.1% octyl-glucoside, 0.002% (w/v) BSA, and 0.002% Triton X-100). Inhibition of ULK1 was measured by adding serial diluted test compound (final assay concentration of 1% DMSO). A decrease in absorption at 340 nm was monitored continuously for 6 hours at 30° C. on a multi-mode microplate reader (BioTek). The reaction rate was calculated using the 2-3 h time frame. The reaction rate at each concentration of compound was converted to percent inhibition using controls (i.e. reaction with no test compound and reaction with a known inhibitor) and IC50 values were calculated by fitting a four-parameter sigmoidal curve to the data using Prism (GraphPad software).

[2] = system: phospho-Serine 318 ATG13 (pATG13), ULK kinase substrate, in A549 (KRAS mutant) cells; assay: pATG13 levels of mutant KRas A549 cells after treatment with ULK inhibitors in combination with trametinib (ELISA); format: cell-based, human; conditions: with 250 nM trametinib
Procedure: Example 177. Cellular Inhibition of ULK Kinase Substrate ATG13 Protein pATG13 Levels of Mutant KRas A549 Cells after Treatment with ULK Inhibitors in Combination with Trametinib
A549 (KRAS mutant) human lung cancer cells (6,000 cells/well) were added to a 384-well tissue-culture treated plate in 50 μL of pre-warmed DMEM medium supplemented with 10% characterized fetal bovine serum (Invitrogen, Carlsbad, Calif.), 100 units/mL penicillin G, and 100 μg/mL streptomycin and allowed to grow overnight at 37° C., 5% CO2, and 95% humidity. The following day, 10 μL of media containing trametinib or DMSO as a control was added to wells. The final concentration of trametinib in wells was 250 nM. A dose response of a test compound (0.6 μL per well) was added. DMSO (0.6 μL) was added to control wells. The plate was briefly shaken to mix wells and then incubated at 37° C. overnight. The next day, the media was aspirated and cells were washed with Dulbecco's Phosphate Buffered Saline (Gibco). Cells were lysed using MPER lysis buffer (Pierce, Rockford, Ill.) containing Halt Phosphatase and Protease Inhibitors (Pierce, Rockford, Ill.) and Phosphatase inhibitor cocktail 2 (Sigma, St. Louis, Mo.) at 4° C. for 10 minutes with shaking.
Cellular levels of phospho-Serine 318 ATG13 (pATG13) were measured via an ELISA method. Total ATG13 Antibody (Cell Signaling Cat #13273) was used to coat the wells. The plate was incubated at 4° C. overnight and washed with ELISA wash buffer (Biolegend Cat #421601). The wells were then blocked with assay diluent (Biolegend Cat #421203) for 1 hour at room temperature. Plate wells were washed with ELISA wash buffer. Cell lysate was added to wells and incubated at room temperature for 2 hours. Plate wells were washed with ELISA wash buffer. Biotinylated pS318-ATG13 antibody (Rockland Immunochemicals Cat #600-401-C49) was diluted in assay diluent and added to each well and incubated at room temperature for 1 hour. Plate wells were washed with ELISA wash buffer. Streptavidin linked to horseradish peroxidase (Thermo Fisher Cat #21140) was diluted in assay diluent and added to each well and incubated at room temperature for 1 hour. Plate wells were washed with ELISA wash buffer. High sensitivity TMB substrate (Biolegend Cat #421101) was added to each well and incubated at room temperature for 20 minutes. The reaction was stopped with 2N Sulfuric Acid. The plate was analyzed at on a plate reader measuring absorbance at 450 nm and 540 nm (background). Signal was calculated by first subtracting the background absorbance at 540 nm from the absorbance at 450 nm for each well. Next, the background corrected absorbance at 450 nm from blank wells was subtracted from test wells. Data was compared to control wells to determine % ATG13 phosphorylation. GraphPad Prism was used to calculate IC50 values.

[3] = biological target: T2, LRRK2 kinase (Homo sapiens, UniProt Q5S007); assay: Biochemical assay for LRRK2 (coupled pyruvate kinase/lactate dehydrogenase assay); conditions: 26.4 nM LRRK2 (residues 970-2528), 0.1 mM peptide substrate, 1 mM ATP
T2 construct: purchased Thermo Fisher
Procedure: Example 182. Biochemical Assay for LRRK2 (SEQ. ID NO. 4)
Activity of LRRK2 kinase was determined spectroscopically using a coupled pyruvate kinase/lactate dehydrogenase assay that continuously monitors the ATP hydrolysis-dependent oxidation of NADH (e.g., Schindler et al. Science (2000) 289: 1938-1942). Assays were conducted in 384-well plates (100 uL final volume) using 26.4 nM LRRK2 (Thermo Fisher), 0.1 mM peptide substrate (RLGRDKYKTLRQIRQ (SEQ ID NO: 6)), 1.5 units pyruvate kinase, 2.1 units lactate dehydrogenase, 1 mM phosphoenol pyruvate, 0.28 mM NADH and 1 mM ATP in assay buffer (100 mM Tris, pH 7.5, 15 mM MgCl2, 0.5 mM DTT, 0.004% (w/v) BSA, and 0.004% Triton X-100). Inhibition of LRRK2 was measured by adding serial diluted test compound (final assay concentration of 1% DMSO). A decrease in absorption at 340 nm was monitored continuously for 6 hours at 30° C. on a multi-mode microplate reader (BioTek). The reaction rate was calculated using the 2-3 h time frame. The reaction rate at each concentration of compound was converted to percent inhibition using controls (i.e. reaction with no test compound and reaction with a known inhibitor) and IC50 values were calculated using software routines in Prism (GraphPad software).

T2 sequence (Q5S007 with tags, fused parts or gaps): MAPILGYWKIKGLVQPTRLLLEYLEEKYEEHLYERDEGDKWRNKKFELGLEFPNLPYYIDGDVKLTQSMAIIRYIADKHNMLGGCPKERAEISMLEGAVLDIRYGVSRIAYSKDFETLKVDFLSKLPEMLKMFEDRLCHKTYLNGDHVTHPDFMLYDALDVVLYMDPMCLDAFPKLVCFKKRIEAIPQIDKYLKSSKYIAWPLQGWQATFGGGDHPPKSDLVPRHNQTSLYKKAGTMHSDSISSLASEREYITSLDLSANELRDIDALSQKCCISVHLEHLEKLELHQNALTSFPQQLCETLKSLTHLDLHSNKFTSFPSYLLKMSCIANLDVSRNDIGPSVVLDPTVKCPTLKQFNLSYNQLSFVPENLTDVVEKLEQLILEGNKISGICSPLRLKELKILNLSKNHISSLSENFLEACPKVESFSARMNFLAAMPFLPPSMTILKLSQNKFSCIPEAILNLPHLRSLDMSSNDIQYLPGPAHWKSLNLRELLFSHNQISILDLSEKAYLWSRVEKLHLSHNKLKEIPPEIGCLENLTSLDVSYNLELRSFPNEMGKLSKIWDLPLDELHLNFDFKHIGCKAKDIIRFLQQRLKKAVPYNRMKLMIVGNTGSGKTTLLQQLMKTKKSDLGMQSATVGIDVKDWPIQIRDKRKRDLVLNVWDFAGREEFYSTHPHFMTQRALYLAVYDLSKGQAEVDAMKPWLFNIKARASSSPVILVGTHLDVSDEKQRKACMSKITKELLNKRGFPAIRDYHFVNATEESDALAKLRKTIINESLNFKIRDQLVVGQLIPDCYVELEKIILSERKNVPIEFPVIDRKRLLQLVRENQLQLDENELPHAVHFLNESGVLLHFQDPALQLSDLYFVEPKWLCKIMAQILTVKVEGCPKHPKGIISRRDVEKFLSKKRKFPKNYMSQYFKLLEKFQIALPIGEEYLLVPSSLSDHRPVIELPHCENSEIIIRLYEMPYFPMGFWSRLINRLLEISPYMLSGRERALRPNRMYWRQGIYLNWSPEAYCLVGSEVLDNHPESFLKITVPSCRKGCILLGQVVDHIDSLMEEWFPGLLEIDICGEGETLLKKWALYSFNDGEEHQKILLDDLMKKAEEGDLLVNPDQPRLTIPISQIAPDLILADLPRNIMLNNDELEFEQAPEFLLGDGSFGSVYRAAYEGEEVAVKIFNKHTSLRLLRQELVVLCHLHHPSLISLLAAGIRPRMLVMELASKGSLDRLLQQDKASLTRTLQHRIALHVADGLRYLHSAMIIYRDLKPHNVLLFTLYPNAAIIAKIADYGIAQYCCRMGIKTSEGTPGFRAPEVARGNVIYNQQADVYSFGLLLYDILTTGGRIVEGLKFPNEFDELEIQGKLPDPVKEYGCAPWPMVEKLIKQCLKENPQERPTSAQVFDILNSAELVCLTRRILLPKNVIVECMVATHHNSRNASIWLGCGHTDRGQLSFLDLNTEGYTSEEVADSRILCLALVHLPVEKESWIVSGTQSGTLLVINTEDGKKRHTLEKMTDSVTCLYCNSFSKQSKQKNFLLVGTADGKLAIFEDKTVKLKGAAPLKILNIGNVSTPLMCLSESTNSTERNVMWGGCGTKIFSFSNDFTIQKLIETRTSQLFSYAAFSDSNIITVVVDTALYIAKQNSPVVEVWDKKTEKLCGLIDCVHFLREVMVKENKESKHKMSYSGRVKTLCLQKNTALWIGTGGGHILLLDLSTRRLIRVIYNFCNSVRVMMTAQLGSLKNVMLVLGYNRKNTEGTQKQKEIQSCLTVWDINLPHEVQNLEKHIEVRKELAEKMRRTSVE

| SMILES | IC50 [1] [nM] | IC50 [2] [nM] | IC50 [3] [nM] |
| --- | --- | --- | --- |
| O=C1CCCCN1CCCNc1nc(Nc2cnn(C3CCNCC3)c2)ncc1Br [Example 9] | 1 to 25 | > 600 |  |
| CC(C)CN1CC(n2cc(Nc3ncc(C(F)(F)F)c(NCCCN4CCCCC4=O)n3)cn2)C1 [Example 12] | 25 to 100 | 300 to 600 |  |
| [2H]C([2H])([2H])C([2H])(N1CCC(n2cc(Nc3ncc(C(F)(F)F)c(NCCCN4CCCCC4=O)n3)cn2)CC1)C([2H])([2H])[2H] [Example 13] | 1 to 25 | 100 to 300 |  |
| CC(C)CN1CC(n2cc(Nc3ncc(Br)c(NCCCN4CCCCC4=O)n3)cn2)C1 [Example 17] | 25 to 100 | 100 to 300 |  |
| Cc1nn(CCCN2CCCC2)cc1Nc1ncc(C(F)(F)F)c(NCCCN2CCCCC2=O)n1 [Example 20] | 25 to 100 | 100 to 300 |  |
| Cc1nn(C2CN(CC(C)C)C2)cc1Nc1ncc(C(F)(F)F)c(NCCCN2CCCCC2=O)n1 [Example 23] | 25 to 100 |  | > 600 |
| Cc1nn(CCN2CCOCC2)cc1Nc1ncc(C(F)(F)F)c(NCCCN2CCCCC2=O)n1 [Example 29] | > 500 |  | > 600 |
| [2H]C([2H])([2H])N1CCC(n2cc(Nc3ncc(C(F)(F)F)c(NCCCN4CCCCC4=O)n3)c(C)n2)CC1 [Example 31] | 1 to 25 | 100 to 300 |  |
| Cc1nn(C2CCN(C3COC3)CC2)cc1Nc1ncc(C(F)(F)F)c(NCCCN2CCCCC2=O)n1 [Example 33] | 100 to 500 |  | 300 to 600 |
| Cc1nn(C2CN(CC(C)C)C2)cc1Nc1ncc(Cl)c(NCCCN2CCCCC2=O)n1 [Example 38] | > 500 |  | > 600 |
| CCc1nn(C2CCNCC2)cc1Nc1ncc(Cl)c(NCCCN2CCCCC2=O)n1 [Example 39] | 100 to 500 |  | > 600 |
| Cc1nn(CCN2CCCC2)cc1Nc1ncc(C(F)(F)F)c(NCCCN2CCCCC2=O)n1 [Example 45] | 100 to 500 |  | > 600 |
| Cc1nn(C2CCNCC2)cc1Nc1ncc(I)c(NCCCN2CCCCC2=O)n1 [Example 48] | 1 to 25 | > 600 |  |
| Cc1nn(C2CCN(C)CC2)cc1Nc1ncc(Cl)c(NCCCN2CCCCC2=O)n1 [Example 56] | 100 to 500 |  | > 600 |
| CCN1CCC(n2cc(Nc3ncc(Cl)c(NCCCN4CCCCC4=O)n3)c(C)n2)CC1 [Example 58] | 100 to 500 | 300 to 600 |  |
| Cc1nn(CCN2CCCC2)cc1Nc1ncc(Br)c(NCCCN2CCCCC2=O)n1 [Example 62] | 100 to 500 |  | > 600 |
| CC1(C)CCC(=O)N1CCCNc1nc(Nc2cnn(C3CCN(C4CC4)CC3)c2)ncc1C1CC1 [Example 69] | > 500 |  | > 600 |
| CC(C)N1CCC(n2cc(Nc3ncc(C(F)(F)F)c(NCCCN4CCOCC4=O)n3)cn2)CC1 [Example 74] | 25 to 100 | > 600 |  |
| CN1CCC(n2cc(Nc3ncc(C4CC4)c(NCCCN4CCCC4=O)n3)cn2)CC1 [Example 84] | 100 to 500 |  | > 600 |
| CCN1CCC(n2cc(Nc3ncc(C(F)(F)F)c(NCCCN4CCCCCC4=O)n3)c(C)n2)CC1 [Example 90, 1-(3-((2-((1-(1-ethylpiperidin-4-yl)-3-methyl-1H-pyrazol-4-yl)amino)-5-(trifluoromethyl)pyrimidin-4-yl)amino)propyl)azepan-2-one] | 1 to 25 | 10 to 100 |  |
| CCC(C)N1CCC(n2cc(Nc3ncc(C(F)(F)F)c(NCCCN4CCCCCC4=O)n3)c(C)n2)CC1 (centres unmarked) [Example 94] | 1 to 25 | 10 to 100 |  |
| Cc1nn(CCN2CCOCC2)cc1Nc1ncc(C(F)(F)F)c(NCCCN2CCCCCC2=O)n1 [Example 98] | 100 to 500 |  | 100 to 300 |
| Cc1nn(C2CCN(C(C)C)CC2)cc1Nc1ncc(Cl)c(NCCCN2CCCOCC2=O)n1 [Example 110] | > 500 |  | 100 to 300 |
| Cc1nn(C2CCN(C)CC2)cc1Nc1ncc(C2CC2)c(NCCCN2CCCOCC2=O)n1 [Example 111] | > 500 |  | > 600 |
| Cc1nn(C2CCN(C)CC2)cc1Nc1ncc(C(F)(F)F)c(NCCCN2CCN(C)C2=O)n1 [Example 152] | 25 to 100 | 100 to 300 |  |
